Literature values in patent EP0920301B1, “THERAPEUTIC OR HYGIENIC COMPOSITIONS WITH CONTROLLED AND PROLONGED RELEASE OF THE ACTIVE PRINCIPLE(S), IN PARTICULAR FOR OPHTHALMIC USE” (priority 1997, dated 1998).

Tested on: la plupart des agents infectieux
Settings: stated threshold, source not given

In the case of sulfate de gentamicine, the concentration inhibitrice minimale is given as 4 µg/mL.
